In US10294202B2, “Pyrrolidinones as herbicides” (FMC Corporation, priority 2013, dated 2019):

Legend:
ducksalad = assay: Test B flooded paddy test; format: in vivo, Heteranthera limosa; settings: 250 g ai/ha, Flood; scale of 0 to 100 where 0 is no effect and 100 is complete control
Procedure, shortened: (§1)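 Paddy-water application at a 3 cm flood, young plants having two leaves. Water level maintained; greenhouse, 13–15 days; visual 0–100 control rating.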

morningglory = assay: Test C pre-/postemergence herbicide test; format: in vivo, Ipomoea coccinea; settings: Preemergence
Procedure, shortened: (§2)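 Two application timings ran in parallel with identically formulated test chemicals (non-phytotoxic solvent, surfactant included): spray on seeded loam–sand soil, and spray on emerged plants 2 to 18 cm high. Evaluation at 13 to 15 days compared each species with controls, rated from 0 up to 100.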

johnsongrass = assay: Test C pre-/postemergence herbicide test; format: in vivo, Sorghum halepense; settings: Preemergence
Procedure, shortened: as §2

corn [1] = assay: Test A pre-/postemergence herbicide test; format: in vivo, Zea mays
Procedure, shortened: (§3)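 Directed soil spray to seeded pots (preemergence) or spray onto one- to two-leaf seedlings 2–10 cm tall (postemergence); loam/sand substrate throughout. Evaluated visually after about 10 days against untreated plants, 0 = no effect, 100 = complete control.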

nutsedge, yellow = assay: Test C pre-/postemergence herbicide test; format: in vivo, Cyperus esculentus; settings: Preemergence
Procedure, shortened: as §2

ryegrass, Italian = assay: Test C pre-/postemergence herbicide test; format: in vivo, Lolium multiflorum; settings: Preemergence
Procedure, shortened: as §2

rice = assay: Test B flooded paddy test; format: in vivo, Oryza sativa; settings: 250 g ai/ha, Flood; scale of 0 to 100 where 0 is no effect and 100 is complete control
Procedure, shortened: as §1

lambsquarters = assay: Test C pre-/postemergence herbicide test; format: in vivo, Chenopodium album; settings: Preemergence
Procedure, shortened: as §2

wheat = assay: Test A pre-/postemergence herbicide test; format: in vivo, Triticum aestivum
Procedure, shortened: as §3

pigweed = assay: Test A pre-/postemergence herbicide test; format: in vivo, Amaranthus retroflexus
Procedure, shortened: as §3

corn [2] = assay: Test C pre-/postemergence herbicide test; format: in vivo, Zea mays; settings: Preemergence
Procedure, shortened: as §2

[3] = 31 g ai/ha, scale 0 to 100, 0 is no effect and 100 is complete control
[4] = 125 g ai/ha, scale 0 to 100 (0 no effect, 100 complete control)
[5] = Postemergence, 125 g ai/ha, 0 to 100 scale, 0 no effect, 100 complete control
[6] = Postemergence, 500 g ai/ha, 0 to 100 scale (0 no effect, 100 complete control)
[7] = Preemergence, 125 g ai/ha, visual rating on 0 to 100 scale (0 no effect, 100 complete control)
[8] = preemergence, 500 g ai/ha, 0 to 100 scale

## O=C1NCC(c2ccc(F)c(C(F)(F)F)c2)C1C(=O)Nc1cccc(F)c1F (racemic) [Compound 77]
ducksalad
  Plant response rating, Ducksalad: 100
morningglory; [3]
  Morningglory plant response rating: 0
morningglory; 62 g ai/ha, scale 0 to 100
  Plant response rating, Morningglory: 0
morningglory; [4]
  Plant response rating, Morningglory: 0
morningglory; 250 g ai/ha
  Plant response rating (scale of 0 to 100), Morningglory: 0
johnsongrass; [3]
  Johnsongrass plant response rating: 20
johnsongrass; 62 g ai/ha, scale 0 to 100
  Plant response rating, Johnsongrass: 55
johnsongrass; [4]
  Plant response rating, Johnsongrass: 75
johnsongrass; 250 g ai/ha
  Plant response rating (scale of 0 to 100), Johnsongrass: 90
Corn [1]; [5]
  Plant response rating, Corn: 50
Corn [1]; [6]
  Plant response rating, Corn: 70
Corn [1]; [7]
  Corn plant response rating: 0
Corn [1]; [8]
  Plant response rating, Corn: 30
nutsedge, yellow; [3]
  Nutsedge, Yellow plant response rating: 0
nutsedge, yellow; 62 g ai/ha, scale 0 to 100
  Plant response rating, Nutsedge, Yellow: 0
nutsedge, yellow; [4]
  Plant response rating, Nutsedge, Yellow: 0
nutsedge, yellow; 250 g ai/ha
  Plant response rating (scale of 0 to 100), Nutsedge, Yellow: 0
ryegrass, Italian; [3]
  Ryegrass, Italian plant response rating: 40
ryegrass, Italian; 62 g ai/ha, scale 0 to 100
  Plant response rating, Ryegrass, Italian: 40
ryegrass, Italian; [4]
  Plant response rating, Ryegrass, Italian: 40
ryegrass, Italian; 250 g ai/ha
  Plant response rating (scale of 0 to 100), Ryegrass, Italian: 45
rice
  Plant response rating, Rice: 10
lambsquarters; [3]
  Lambsquarters plant response rating: 75
lambsquarters; 62 g ai/ha, scale 0 to 100
  Plant response rating, Lambsquarters: 85
lambsquarters; [4]
  Plant response rating, Lambsquarters: 85
lambsquarters; 250 g ai/ha
  Plant response rating (scale of 0 to 100), Lambsquarters: 98
wheat; [5]
  Plant response rating, Wheat: 50
wheat; [6]
  Plant response rating, Wheat: 60
wheat; [7]
  Wheat plant response rating: 0
wheat; [8]
  Plant response rating, Wheat: 30
pigweed; [5]
  Plant response rating, Pigweed: 40
pigweed; [6]
  Plant response rating, Pigweed: 50
pigweed; [7]
  Pigweed plant response rating: 40
pigweed; [8]
  Plant response rating, Pigweed: 70
Corn [2]; [3]
  Corn plant response rating: 0
Corn [2]; 62 g ai/ha, scale 0 to 100
  Plant response rating, Corn: 20
Corn [2]; [4]
  Plant response rating, Corn: 55
Corn [2]; 250 g ai/ha
  Plant response rating (scale of 0 to 100), Corn: 70
